Data: patent publication US8431131B2, “CD38 and obesity” (Mayo Foundation for Medical Education and Research, priority 2007, dated 2013)
One block for each compound: values may come before it.

Tests used:
[1] = tested on: Ca2+ release induced by oxytocin; experiment: Oxytocin-induced Ca2+ release in smooth muscle cells (control experiments); assay type: cell-based, mice; conditions: same conditions as p53 experiment
[2] = tested on: acetylated P53; experiment: Acetylated p53 immuno-staining in cultured smooth muscle cells (measure of endogenous SIRT activity); assay type: cell-based, mice; conditions: 100 μM, four to six hours
Experimental: (§1) FIG. 8. The effect of resveratrol and sirtinol upon the cADPR system. In A, ADP ribosyl cyclase activity was measured in liver plasma membranes using NGD as a substrate. Mice were treated with 100 μM of a test drug: DTT (dithiothreitol), resverastrol (Resv), or sirtinol. The control mice received no addition. Similar results were obtained using purified Aplysia ADPribosyl cyclase. In B, cADPR-induced Ca^2+ was measured in sea urchin egg homogenates. Ca^2+ was induced by 100 nM of cADPR with no further additions, or with 1 minute pre-incubation of 100 μM of the testing drugs 8-Br-cADPR (8-Br), resveratrol (Resv), or sirtinol. In C, experiments were conducted in smooth muscle cells in culture as described in FIG. 1E. Four to six hours before fixation and staining with acetylated P53 antibody, cells were treated with 100 μM of the testing drugs. 3-Deaza-cADPR is a cell permeable cADPR agonist. […] All experiments were repeated three to four times. The asterisk denotes significant differences between control and treatment.
For experiments, cells were made quiescent by replacing the growth medium with SmBM without serum or growth factors. Cell medium was again replaced with SmBM containing testing agents solubilized in 0.1% DMSO or water added to the final concentrations.
Smooth muscle cells were obtained as described above. Cells were fixed in suspension in PBS plus 2% paraformaldehyde for 20 minutes at room temperature with constant agitation, and cells were washed three times for 10 minutes with TBS-Triton X-100 (0.1%). After that, cells were incubated in blocking buffer (TBS, 30 mM glycine, and 5% BSA) for 60 minutes and incubated with anti-acetylated p53 rabbit polyclonal antibody (1:1000) (Abcam, Inc.; Cambridge, Mass.) overnight at 4° C. with constant agitation. […]
Laser confocal images were obtained using the Olympus Fluoview laser scanning confocal microscopy, with objective Olympus UplanApo oil, 100×, 1.35 numerical aperture. Nuclei were excited at 543 nm, and their emission recorded at 570 nm.

[3] = biological target: T1, SIRT1 (Homo sapiens, UniProt Q96EB6); experiment: Effect of CD38 metabolites on SIRT1 activity; assay type: biochemical
T1 construct: purchased Biomol International, LP
T1 sequence (Q96EB6 1-747): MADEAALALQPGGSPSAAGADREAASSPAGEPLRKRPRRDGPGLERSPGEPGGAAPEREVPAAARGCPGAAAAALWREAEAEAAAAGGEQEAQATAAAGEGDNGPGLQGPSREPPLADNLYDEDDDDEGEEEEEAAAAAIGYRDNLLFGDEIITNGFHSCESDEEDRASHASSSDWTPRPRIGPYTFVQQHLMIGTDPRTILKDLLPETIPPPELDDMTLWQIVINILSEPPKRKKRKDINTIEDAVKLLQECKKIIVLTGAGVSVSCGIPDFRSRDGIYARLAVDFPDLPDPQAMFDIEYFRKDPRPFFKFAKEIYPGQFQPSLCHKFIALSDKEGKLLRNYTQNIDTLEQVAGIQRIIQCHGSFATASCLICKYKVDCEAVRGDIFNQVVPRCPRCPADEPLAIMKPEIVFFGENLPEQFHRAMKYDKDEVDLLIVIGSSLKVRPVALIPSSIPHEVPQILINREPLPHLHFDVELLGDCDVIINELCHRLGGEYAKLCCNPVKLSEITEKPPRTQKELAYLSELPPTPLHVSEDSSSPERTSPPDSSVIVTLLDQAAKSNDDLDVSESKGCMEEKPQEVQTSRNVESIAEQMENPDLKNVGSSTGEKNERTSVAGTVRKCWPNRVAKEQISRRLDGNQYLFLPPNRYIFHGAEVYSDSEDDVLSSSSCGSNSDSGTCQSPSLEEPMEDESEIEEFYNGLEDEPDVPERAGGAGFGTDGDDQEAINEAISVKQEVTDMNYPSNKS
Experimental: SIRT1 polypeptide activity was determined using the SIRT1 Fluorimetric Kit (Biomol International, LP; Plymouth Meeting, Pa.) according to the manufacturer's instructions. Briefly, nuclei prepared from wild-type or CD38 knockout mice (1 μg protein/well) were incubated in 40 mM Tris-HCl (pH 7.4) containing human recombinant SIRT1 (1 U/assay), 500 μM NAD+, and 100 μM Flour de Lys-SIRT1 substrate for 30 minutes at 37° C. Following incubation, the reaction was terminated by addition of a solution containing Flour de Lys Developer and 2 mM nicotinamide. Values were determined by reading fluorescence on a fluorimetric plate reader (Spectramax Gemini XPS; Molecular Devices; Sunnyvale, Calif.) with an excitation wavelength of 360 nm and emitted wavelength of 460 nm. Calculation of net fluorescence expressed as percent of control included the subtraction of a blank consisting of buffer containing no NAD+. Endogenous SIRT polypeptide activity was determined as described above with the exception that no recombinant SIRT enzyme was added to the reaction mixture and that the nuclear preparations were sonicated before the assay. The data were expressed as NAD stimulated deacetylation.
CD38 metabolites were tested for an effect on SIRT1 activity.

[4] = biological target: T2, CD38 polypeptide (Homo sapiens, UniProt P28907); experiment: CD38 NADase activity assay with etheno-NAD as substrate; assay type: biochemical; conditions: 1 mM, 10 minutes incubation
T2 sequence (P28907 1-300): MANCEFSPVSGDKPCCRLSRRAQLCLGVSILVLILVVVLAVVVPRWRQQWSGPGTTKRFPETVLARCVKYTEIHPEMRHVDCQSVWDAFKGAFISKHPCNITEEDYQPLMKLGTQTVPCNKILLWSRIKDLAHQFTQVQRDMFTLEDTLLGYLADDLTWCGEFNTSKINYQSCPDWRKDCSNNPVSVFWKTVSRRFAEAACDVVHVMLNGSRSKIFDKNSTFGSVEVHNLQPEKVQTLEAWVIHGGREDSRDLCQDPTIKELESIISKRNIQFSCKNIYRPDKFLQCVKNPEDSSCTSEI
Description: Agents that can inhibit CD38 expression or activity in cells can be identified by screening candidate agents (e.g., from synthetic compound libraries and/or natural product libraries). Candidate agents can be obtained from any commercial source and can be chemically synthesized using methods that are known to those of skill in the art. Candidate agents can be screened and characterized using in vitro cell-based assays, cell free assays, and/or in vivo animal models. For example, a CD38 NADase assay can be used to identify CD38 antagonists. NADase activity can be determined using etheno-NAD. Enzyme preparations (e.g., purified CD38) can be incubated in a medium containing, for example, 0.2 mM […], 0.25 M sucrose, and 40 mM Tris-HCl (pH 7.2) at 37° C. NADase activity can be determined by measuring the change in fluorescence over time at, for example, 300 nm excitation and 410 nm emission. Candidate agents can be added to the CD38 assay, and a decrease of the NADase activity compared to control can be determined. […]
ADP-ribosyl cyclase polypeptide activity was measured using the NGD technique as described herein, and NADase polypeptide activity was determined using etheno-NAD as described elsewhere (Johnson et al., Diabetes, 55:2737-2746 (2006)). […] Activity was determined by measuring the change in fluorescence over time at 300 nm excitation and 410 nm emission. […]

[5] = tested on: cADPR-induced Ca2+ release; experiment: cADPR-induced Ca2+ release in sea urchin egg homogenates; assay type: biochemical, Lytechinus pictus; conditions: 100 nM cADPR, 1 minute pre-incubation with 100 μM drug
Experimental: as §1, with “Similar results were obtained using purified Aplysia ADPribosyl cyclase.” left out, “treatment. cADPR-induced Ca^2+ release was determined in sea urchin egg homogenates using fluo-3 as a Ca^2+ indicator as described elsewhere (Chini, Braz. J. Med. Biol. Res., 35:543-547 (2002)). […] Fluo-3 fluorescence was monitored at 490 nm excitation and 535 nm emission in a 250-μL cuvette, held at 17° C. with a circulating water bath and continuously mixed with a magnetic stirring bar, in a Hitachi spectrofluorometer (F-2000).” for “treatment.”

[6] = tested on: ADP ribosyl cyclase; experiment: ADP ribosyl cyclase activity (cADPR synthesis) in liver plasma membranes using NGD as substrate; assay type: biochemical, mice; conditions: 100 μM test drug
Experimental: as §1
ADP-ribosyl cyclase polypeptide activity was measured using the NGD technique as described herein, and NADase polypeptide activity was determined using etheno-NAD as described elsewhere (Johnson et al., Diabetes, 55:2737-2746 (2006)). […] Activity was determined by measuring the change in fluorescence over time at 300 nm excitation and 410 nm emission.

[7] = tested on: high fat diet-induced obesity; experiment: High fat diet-induced obesity in mice; assay type: in vivo; conditions: 30 mg/kg/day intraperitoneal, two weeks of HFD
Experimental: FIG. 9. […] Wild type mice were treated with resveratrol (a SIRT stimulator), and CD38 (−/−) mice were treated with Sirtinol (a SIRT antagonist) during 2 weeks of high fat diet. […] The number of animals in each group was between four and six.
Metabolic Studies and Diet At one year of age, CD38 (−/−) mice were placed on either a normal caloric diet (NCD; diet number 3807, KLIBA-NAFAG) or an HFD (AIN-93G modified to provide 60% of calories from fat, Researchdiets) ad libitum and monitored for six weeks. Body weight was recorded weekly, and food intake was measured for seven consecutive days. Oxygen consumption and energy expenditure (ER) measurements were performed in mice fed HFD for four weeks, and quantification of blood metabolites were performed. For the experiments using resveratrol and sirtinol, the HFD was supplemented with daily intraperitoneal injections of 30 mg/kg of drug (or vehicle) for two weeks. Cultured Smooth Muscle Cells from Wild-Type and CD38 Knockout Mice
Wild type mice were treated with 30 mg/kg/day of resveratrol, and CD38 (−/−) were treated with the same dose of sirtinol to determine the role of the SIRT enzymes upon high fat diet-induced obesity.

Compound: 3-Deaza-cADPR
- effect on oxytocin-induced Ca2+ release [1]: increased oxytocin effect

Compound: N=c1c2nc(Br)n3c2ncn1C1OC(COP(=O)(O)OP(=O)(O)OCC2OC3C(O)C2O)C(O)C1O (centres unmarked) [8-Br-cADPR]
- effect on oxytocin-induced Ca2+ release [1]: blocked Ca^2+ release induced by oxytocin
- levels of p53 acetylation in cells ([2]; smooth muscle cells): neither the cell permeable cADPR antagonist (8-br-cADPR) nor the cADPR agonist (3-deaza-cADPR) had any effect

- effect on SIRT1 activity [3]: exhibited an effect
Compound: NC(=O)c1ccc[n+]([C@@H]2O[C@H](COP(=O)([O-])OP(=O)(O)OC[C@H]3O[C@@H](n4cnc5c(N)ncnc54)[C@H](O)[C@@H]3O)[C@@H](O)[C@H]2O)c1 [NAD]

- CD38 NADase activity [4]: substantial inhibition
- effect on SIRT1 activity [3]: exhibited an effect
Compound: NC(=O)c1cccnc1 [nicotinamide]

Compound: Oc1ccc(C=Cc2cc(O)cc(O)c2)cc1 [resveratrol]
- effect upon cADPR-induced Ca2+ release [5]: Neither resveratrol (a SIRT activator) nor sirtinol (a SIRT inhibitor) exhibited any effect
- effect upon cADPR synthesis (ADP ribosyl cyclase activity) [6]: Neither resveratrol (a SIRT activator) nor sirtinol (a SIRT inhibitor) exhibited any effect
- protection against high fat diet-induced obesity ([7]; wild type mice): protected against high fat induced obesity
- acetylated p53 level ([2]; smooth muscle cells from wild type mice): decreased acetylated p53

Compound: CC(NC(=O)c1ccccc1/N=C/c1c(O)ccc2ccccc12)c1ccccc1 (centres unmarked) [sirtinol]
- effect upon cADPR synthesis (ADP ribosyl cyclase activity) [6]: nor sirtinol (a SIRT inhibitor) exhibited any effect
- protective effect of CD38 knock out upon high fat diet-induced obesity ([7]; CD38 (−/−) mice): abrogated
- weight gain compared with vehicle treated CD38 (−/−) mice ([7]; CD38 (−/−) mice): gained a statistically significant amount of weight
- acetylated p53 level ([2]; smooth muscle cells from CD38 (−/−) mice): increased acetylated p53
